Results as given in ChEMBL document CHEMBL4196052, “Rational modifications on a benzylidene-acrylohydrazide antiviral scaffold, synthesis and evaluation of bioactivity against Chikungunya virus” (Eur J Med Chem, 2018).

Assays:
Chikungunya virus [1] = experiment: Antiviral activity against Chikungunya virus Indian Ocean strain 899 infected in African green monkey Vero cells assessed as inhibition of viral-induced cytopathic effect measured on day 5 post infection by MTS/PMS assay; type: functional, organism-based, Indian Ocean 899; conditions: for EC50 / EC90: Chikungunya virus, Indian Ocean 899, Vero, 120 h
Chikungunya virus [2] = experiment: Antiviral activity against Chikungunya virus Indian Ocean strain 899 infected in African green monkey Vero cells assessed as inhibition of viral-induced cytopathic effect by measuring concentration required for maximum activity measured on day 5 post infection by MTS/PMS assay; type: functional, Indian Ocean 899

| Structure (SMILES) | Imax (Chikungunya virus [1]) [%] | EC50 (Chikungunya virus [1]) [µM] | EC90 (Chikungunya virus [1]) [µM] | Activity (Chikungunya virus [2]) [µM] |
| --- | --- | --- | --- | --- |
| Cc1ccc(NC(=O)N/C=C/c2ccccc2)cc1 | 21 | > 396 | > 396 | 396 |
| CCOc1ccc(/C=N/NC(=O)/C=C/c2ccc(C(C)(C)C)cc2)cc1OCC | 100 | – | 11 | 12.5 |
| COc1ccc(CNC(=O)N/C=C/c2ccccc2)cc1OC | 13 | > 320 | > 320 | 320 |
| CCOc1ccc(/C=N/NC(=O)c2cc3ccccc3[nH]2)cc1OCC | 50 | > 213 | > 213 | 213 |
| Cc1ccc(/C=N/NC(=O)c2cnc3ccccc3c2)cc1 | 27 | > 346 | > 346 | 346 |
| COc1ccc(CNC(=O)N/C=C/c2ccc(C(C)(C)C)cc2)cc1OC | 100 | 11.6 | 14.8 | 17 |
| O=C(N/N=C/c1ccc(O)cc1)c1cnc2ccccc2c1 | <1 | > 343 | > 343 | 343 |
| CCOc1ccc(/C=N/NC(=O)c2ccc3ccccc3n2)cc1OCC | 8 | > 275 | > 275 | 275 |
| Cc1ccc(-c2nnc(/C=C/c3ccc(C(C)(C)C)cc3)o2)cc1 | 8 | > 157 | > 157 | 157 |
| C/C(=N\NC(=O)c1ccc2ccccc2c1)c1ccc(C2CCCCC2)cc1 | 14 | > 270 | > 270 | 270 |
| CC(C)(C)c1ccc(/C=C/NC(=O)Nc2ccc(O)cc2)cc1 | 100 | 9.1 | 11.9 | 4.1 |
| O=C(N/N=C/c1ccc(O)cc1)c1nc2ccccc2[nH]1 | 33 | > 357 | > 357 | 357 |
| CCOc1ccc(C(=O)NNC(=O)/C=C/c2ccc(C(C)(C)C)cc2)cc1OCC | 11 | > 244 | > 244 | 6.3 |
| Cc1ccc(/C=N/NC(=O)c2nc3ccccc3[nH]2)cc1 | 14 | > 120 | > 120 | 120 |
| Cc1ccc(/C=N/NC(=S)NCCc2ccccc2)cc1 | 12 | > 336 | > 336 | 56 |
| C/C(=N\NC(=O)/C=C/c1ccc(C(F)(F)F)cc1)c1ccc(C2CCCCC2)cc1 | 12 | > 241 | > 241 | 241 |
| CCOc1ccc(/C=N/NC(=O)c2nc3ccccc3[nH]2)cc1OCC | 6 | > 284 | > 284 | 284 |
| COc1ccc(/C=C/C(=O)N/N=C/c2ccc(C)cc2)cc1 | 13 | > 112 | > 112 | 112 |
| CCOc1ccc(/C=N/NC(=O)/C=C/c2ccc(C(C)C)cc2)cc1OCC | 30 | > 29.2 | > 29.2 | 8 |
| O=C(N/N=C/c1ccc(O)cc1)c1ccc2ccccc2n1 | <1 | > 343 | > 343 | 343 |
| C/C(=N\NC(=O)c1ccc2ccccc2n1)c1ccc(C2CCCCC2)cc1 | 13 | > 269 | > 269 | 269 |
| CCOc1ccc(/C=N/NC(=O)c2cnc3ccccc3c2)cc1OCC | 3 | > 275 | > 275 | 275 |
| Cc1ccc(-c2nnc(CCc3ccc(C(C)(C)C)cc3)o2)cc1 | 100 | 17.2 | 21.7 | 26 |

| Structure (SMILES) | Imax (Chikungunya virus [1]) [%] | EC50 (Chikungunya virus [1]) [µM] | EC90 (Chikungunya virus [1]) [µM] | Activity (Chikungunya virus [2]) [µM] |
| --- | --- | --- | --- | --- |
| Cc1ccc(CNC(=O)N/C=C/c2ccccc2)cc1 | 18 | > 376 | > 376 | 376 |
| C/C(=N\NC(=O)c1cnc2ccccc2c1)c1ccc(C2CCCCC2)cc1 | 19 | > 202 | > 202 | 202 |
| Cc1ccc(/C=N/NC(=O)c2ccc3ccccc3n2)cc1 | 3 | > 346 | > 346 | 346 |
| C/C(=N\NC(=O)/C=C/c1ccc(-c2ccccc2)cc1)c1ccc(C2CCCCC2)cc1 | 15 | > 29.6 | > 29.6 | 30 |
| O=C(N/N=C/c1ccc(O)cc1)c1ccc2ccccc2c1 | 2 | > 344 | > 344 | 344 |
| C/C(=N\NC(=O)/C=C/c1ccc(C(C)C)cc1)c1ccc(C2CCCCC2)cc1 | 13 | > 193 | > 193 | 193 |
| CCOc1ccc(/C=N/NC(=O)/C=C/c2ccc(OC)cc2)cc1OCC | 8 | > 271 | > 271 | 45 |
| Cc1ccc(C(=O)NNC(=O)/C=C/c2ccc(C(C)(C)C)cc2)cc1 | 9 | > 99.1 | > 99.1 | 99.1 |
| C/C(=N\NC(=O)c1cc2ccccc2[nH]1)c1ccc(C2CCCCC2)cc1 | 41 | > 209 | > 209 | 209 |
| CC(C)(C)c1ccc(/C=C/NC(=O)NCc2ccccc2)cc1 | 8 | > 107 | > 107 | 107 |
| Cc1ccc(NC(=O)N/C=C/c2ccc(C(C)(C)C)cc2)cc1 | 16 | > 61 | > 61 | 61 |
| Cc1ccc(/C=N/NC(=O)c2ccc3ccccc3c2)cc1 | 10 | > 347 | > 347 | 347 |
| Cc1ccc(CNC(=O)N/C=C/c2ccc(C(C)(C)C)cc2)cc1 | 10 | > 103 | > 103 | 103 |
| CCOc1ccc(/C=N/NC(=O)c2ccc3ccccc3c2)cc1OCC | 24 | > 276 | > 276 | 276 |
| Cc1ccc(/C=N/NC(=O)c2cc3ccccc3[nH]2)cc1 | 45 | > 361 | > 361 | 361 |
| COc1ccc(/C=C/C(=O)N/N=C(\C)c2ccc(C3CCCCC3)cc2)cc1 | 9 | > 87.7 | > 87.7 | 66 |
| O=C(N/N=C/c1ccc(O)cc1)c1cc2ccccc2[nH]1 | 51 | 348 | > 358 | 358 |
| O=C(N/C=C/c1ccccc1)Nc1ccc(O)cc1 | 2 | > 393 | > 393 | 197 |
| CCOc1ccc(/C=N/NC(=O)/C=C/c2ccc(-c3ccccc3)cc2)cc1OCC | 47 | > 80.2 | > 80.2 | 120 |
| CCOc1ccc(-c2nnc(/C=C/c3ccc(C(C)(C)C)cc3)o2)cc1OCC | 100 | 29 | 88.2 | 127.4 |
| CCOc1ccc(/C=N/NC(=O)N/C=C/c2ccc(C(C)(C)C)cc2)cc1OCC | 49 | > 100 | > 100 | 100 |
| CCN(CC)CCCC(C)Nc1ccnc2cc(Cl)ccc12 (stereo unspecified) [CHLOROQUINE] | – | – | 21 | – |
